# In ChEMBL document CHEMBL4507267 (2021):
# How the values were obtained:
# [1] = molecular target: Sigma non-opioid intracellular receptor 1 (Homo sapiens) (UniProt Q99720); conditions: Compound concentration 10.0 uM
# [2] = molecular target: Casein kinase I isoform gamma-3 (Homo sapiens) (UniProt Q9Y6M4); conditions: Compound concentration 1000.0 nM
# [3] = molecular target: Cyclin-dependent kinase 11B (Homo sapiens) (UniProt P21127); conditions: Compound concentration 1000.0 nM
# [4] = molecular target: Tyrosine-protein kinase HCK (Homo sapiens) (UniProt P08631); conditions: Compound concentration 1000.0 nM
# [5] = tested on: Phosphatidylinositol 4,5-bisphosphate 3-kinase catalytic subunit alpha isoform (Homo sapiens), P42336 [E542K]; conditions: Compound concentration 1000.0 nM
# [6] = molecular target: Glycogen synthase kinase-3 alpha (Homo sapiens) (UniProt P49840); conditions: Compound concentration 1000.0 nM
# [7] = molecular target: 5-hydroxytryptamine receptor 1E (Homo sapiens) (UniProt P28566); conditions: Compound concentration 10.0 uM
# [8] = molecular target: Casein kinase II subunit alpha' (Homo sapiens) (UniProt P19784); conditions: Compound concentration 1000.0 nM
# [9] = molecular target: Serine/threonine-protein kinase PLK3 (Homo sapiens) (UniProt Q9H4B4); conditions: Compound concentration 1000.0 nM
# [10] = tested on: Proto-oncogene tyrosine-protein kinase receptor Ret (Homo sapiens), P07949 [M918T]; conditions: Compound concentration 1000.0 nM
# [11] = molecular target: Calcium/calmodulin-dependent protein kinase type 1D (Homo sapiens) (UniProt Q8IU85); conditions: Compound concentration 1000.0 nM
# [12] = molecular target: Calcium/calmodulin-dependent protein kinase type II subunit beta (Homo sapiens) (UniProt Q13554); conditions: Compound concentration 1000.0 nM
# [13] = molecular target: Tyrosine-protein kinase BTK (Homo sapiens) (UniProt Q06187); conditions: Compound concentration 1000.0 nM
# [14] = molecular target: Mitogen-activated protein kinase kinase kinase 19 (Homo sapiens) (UniProt Q56UN5); conditions: Compound concentration 1000.0 nM
# [15] = molecular target: Angiopoietin-1 receptor (Homo sapiens) (UniProt Q02763); conditions: Compound concentration 1000.0 nM
# [16] = molecular target: Homeodomain-interacting protein kinase 3 (Homo sapiens) (UniProt Q9H422); conditions: Compound concentration 1000.0 nM
# [17] = molecular target: Serine/threonine-protein kinase 25 (Homo sapiens) (UniProt O00506); conditions: Compound concentration 1000.0 nM
# [18] = molecular target: Serine/threonine-protein kinase MRCK gamma (Homo sapiens) (UniProt Q6DT37); conditions: Compound concentration 1000.0 nM
# [19] = molecular target: Wee1-like protein kinase (Homo sapiens) (UniProt P30291); conditions: Compound concentration 1000.0 nM
# [20] = molecular target: Interleukin-1 receptor-associated kinase 1 (Homo sapiens) (UniProt P51617); conditions: Compound concentration 1000.0 nM
# [21] = molecular target: Serine/threonine-protein kinase Chk2 (Homo sapiens) (UniProt O96017); conditions: Compound concentration 1000.0 nM
# [22] = molecular target: Mitogen-activated protein kinase 7 (Homo sapiens) (UniProt Q13164); conditions: Compound concentration 1000.0 nM
# [23] = molecular target: Tyrosine-protein kinase TXK (Homo sapiens) (UniProt P42681); conditions: Compound concentration 1000.0 nM
# [24] = molecular target: Phosphatidylinositol 5-phosphate 4-kinase type-2 gamma (Homo sapiens) (UniProt Q8TBX8); conditions: Compound concentration 1000.0 nM
# [25] = molecular target: Ribosomal protein S6 kinase alpha-3 (Homo sapiens) (UniProt P51812); conditions: Compound concentration 1000.0 nM
# [26] = tested on: Receptor-type tyrosine-protein kinase FLT3 (Homo sapiens), P36888 [R834Q]; conditions: Compound concentration 1000.0 nM
# [27] = tested on: ALK tyrosine kinase receptor (Homo sapiens), Q9UM73 [C1156Y]; conditions: Compound concentration 1000.0 nM
# [28] = molecular target: Tyrosine-protein kinase ABL2 (Homo sapiens) (UniProt P42684); conditions: Compound concentration 1000.0 nM
# [29] = molecular target: Muscarinic acetylcholine receptor M3 (Homo sapiens) (UniProt P20309); conditions: Compound concentration 10.0 uM
# [30] = molecular target: MAP/microtubule affinity-regulating kinase 4 (Homo sapiens) (UniProt Q96L34); conditions: Compound concentration 1000.0 nM
# [31] = molecular target: Non-receptor tyrosine-protein kinase TNK1 (Homo sapiens) (UniProt Q13470); conditions: Compound concentration 1000.0 nM
# [32] = molecular target: Cyclin-dependent kinase-like 3 (Homo sapiens) (UniProt Q8IVW4); conditions: Compound concentration 1000.0 nM
# [33] = molecular target: Serine/threonine-protein kinase PAK 6 (Homo sapiens) (UniProt Q9NQU5); conditions: Compound concentration 1000.0 nM
# [34] = molecular target: Muscarinic acetylcholine receptor M4 (Homo sapiens) (UniProt P08173); conditions: Compound concentration 10.0 uM
# [35] = molecular target: Histamine H2 receptor (Homo sapiens, UniProt P25021); conditions: Compound concentration 10.0 uM
# [36] = molecular target: GABA-A receptor; anion channel (Rattus norvegicus) (UniProt O09028+P15431+P18506+P18508+P19969+P20236+P23574+P23576+P28471+P28473+P30191+P62813+P63079+P63138+Q91ZM7+Q9ES14); conditions: Compound concentration 10.0 uM
# [37] = molecular target: Phosphatidylinositol 4,5-bisphosphate 3-kinase catalytic subunit beta isoform (Homo sapiens) (UniProt P42338); conditions: Compound concentration 1000.0 nM
# [38] = molecular target: SRSF protein kinase 3 (Homo sapiens) (UniProt Q9UPE1); conditions: Compound concentration 1000.0 nM
# [39] = molecular target: Myosin-IIIb (Homo sapiens) (UniProt Q8WXR4); conditions: Compound concentration 1000.0 nM
# [40] = tested on: Proto-oncogene tyrosine-protein kinase receptor Ret (Homo sapiens), P07949 [V804M]; conditions: Compound concentration 1000.0 nM
# [41] = tested on: Fibroblast growth factor receptor 3 (Homo sapiens), P22607 [G697C]; conditions: Compound concentration 1000.0 nM
# [42] = molecular target: Myosin-IIIa (Homo sapiens) (UniProt Q8NEV4); conditions: Compound concentration 1000.0 nM
# [43] = molecular target: Cyclin-dependent kinase 4 (Homo sapiens) (UniProt P11802); conditions: Compound concentration 1000.0 nM
# [44] = molecular target: Serine/threonine-protein kinase 32B (Homo sapiens) (UniProt Q9NY57); conditions: Compound concentration 1000.0 nM
# Chain of 5-hydroxytryptamine receptor 1E (Homo sapiens) (P28566 whole entry): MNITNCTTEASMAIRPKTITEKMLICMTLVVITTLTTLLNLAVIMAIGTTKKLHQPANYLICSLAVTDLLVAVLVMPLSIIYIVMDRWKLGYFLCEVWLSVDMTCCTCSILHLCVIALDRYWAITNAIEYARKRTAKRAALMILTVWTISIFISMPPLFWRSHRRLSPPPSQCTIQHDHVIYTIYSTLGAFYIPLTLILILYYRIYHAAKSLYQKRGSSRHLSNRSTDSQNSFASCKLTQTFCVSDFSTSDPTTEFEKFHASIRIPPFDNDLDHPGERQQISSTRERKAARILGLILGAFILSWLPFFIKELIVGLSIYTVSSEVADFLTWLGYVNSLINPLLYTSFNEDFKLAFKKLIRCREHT
# Chain of Serine/threonine-protein kinase 25 (Homo sapiens) (O00506 whole entry, looked up): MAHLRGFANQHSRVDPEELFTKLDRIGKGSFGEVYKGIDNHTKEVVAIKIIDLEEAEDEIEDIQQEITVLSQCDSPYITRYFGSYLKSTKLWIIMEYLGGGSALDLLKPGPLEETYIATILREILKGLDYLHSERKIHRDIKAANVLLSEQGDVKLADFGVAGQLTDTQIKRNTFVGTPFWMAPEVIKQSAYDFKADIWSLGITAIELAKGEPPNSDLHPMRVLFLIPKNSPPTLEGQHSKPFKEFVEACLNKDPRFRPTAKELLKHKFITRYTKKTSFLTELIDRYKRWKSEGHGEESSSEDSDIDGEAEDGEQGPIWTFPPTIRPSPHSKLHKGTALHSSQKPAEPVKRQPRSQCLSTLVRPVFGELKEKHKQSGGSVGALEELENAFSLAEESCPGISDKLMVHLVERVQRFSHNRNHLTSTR
# Chain of Glycogen synthase kinase-3 alpha (Homo sapiens) (P49840 2-483 limits assumed): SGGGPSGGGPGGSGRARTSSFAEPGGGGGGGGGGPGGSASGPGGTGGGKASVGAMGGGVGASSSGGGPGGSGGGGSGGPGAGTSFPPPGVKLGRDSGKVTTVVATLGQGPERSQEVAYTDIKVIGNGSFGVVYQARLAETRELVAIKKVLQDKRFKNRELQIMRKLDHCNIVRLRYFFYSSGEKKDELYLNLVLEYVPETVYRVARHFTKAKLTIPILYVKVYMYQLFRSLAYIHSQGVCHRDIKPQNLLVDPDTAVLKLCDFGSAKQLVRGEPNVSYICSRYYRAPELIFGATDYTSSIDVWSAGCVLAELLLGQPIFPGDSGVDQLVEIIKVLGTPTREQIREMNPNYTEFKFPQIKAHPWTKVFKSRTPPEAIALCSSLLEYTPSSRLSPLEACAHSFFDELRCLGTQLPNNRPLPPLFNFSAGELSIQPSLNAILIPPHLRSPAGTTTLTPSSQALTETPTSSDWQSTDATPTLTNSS
# Chain of Serine/threonine-protein kinase PLK3 (Homo sapiens) (Q9H4B4 whole entry, looked up): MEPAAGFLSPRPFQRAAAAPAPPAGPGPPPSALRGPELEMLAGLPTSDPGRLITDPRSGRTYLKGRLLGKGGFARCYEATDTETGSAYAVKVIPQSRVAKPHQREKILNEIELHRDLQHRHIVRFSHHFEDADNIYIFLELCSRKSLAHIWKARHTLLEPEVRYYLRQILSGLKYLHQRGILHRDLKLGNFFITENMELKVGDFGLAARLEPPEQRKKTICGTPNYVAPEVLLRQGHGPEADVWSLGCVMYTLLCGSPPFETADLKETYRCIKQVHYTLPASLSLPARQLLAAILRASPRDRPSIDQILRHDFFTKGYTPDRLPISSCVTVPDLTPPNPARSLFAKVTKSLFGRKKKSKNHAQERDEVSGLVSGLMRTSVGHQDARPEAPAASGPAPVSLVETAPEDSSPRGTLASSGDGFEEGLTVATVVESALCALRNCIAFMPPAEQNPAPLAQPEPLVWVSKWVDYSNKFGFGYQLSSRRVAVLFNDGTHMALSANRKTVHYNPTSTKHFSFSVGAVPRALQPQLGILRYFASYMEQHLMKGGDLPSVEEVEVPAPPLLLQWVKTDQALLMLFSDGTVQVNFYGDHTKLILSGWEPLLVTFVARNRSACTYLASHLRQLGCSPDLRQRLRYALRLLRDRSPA
# Chain of Ribosomal protein S6 kinase alpha-3 (Homo sapiens) (P51812 whole entry): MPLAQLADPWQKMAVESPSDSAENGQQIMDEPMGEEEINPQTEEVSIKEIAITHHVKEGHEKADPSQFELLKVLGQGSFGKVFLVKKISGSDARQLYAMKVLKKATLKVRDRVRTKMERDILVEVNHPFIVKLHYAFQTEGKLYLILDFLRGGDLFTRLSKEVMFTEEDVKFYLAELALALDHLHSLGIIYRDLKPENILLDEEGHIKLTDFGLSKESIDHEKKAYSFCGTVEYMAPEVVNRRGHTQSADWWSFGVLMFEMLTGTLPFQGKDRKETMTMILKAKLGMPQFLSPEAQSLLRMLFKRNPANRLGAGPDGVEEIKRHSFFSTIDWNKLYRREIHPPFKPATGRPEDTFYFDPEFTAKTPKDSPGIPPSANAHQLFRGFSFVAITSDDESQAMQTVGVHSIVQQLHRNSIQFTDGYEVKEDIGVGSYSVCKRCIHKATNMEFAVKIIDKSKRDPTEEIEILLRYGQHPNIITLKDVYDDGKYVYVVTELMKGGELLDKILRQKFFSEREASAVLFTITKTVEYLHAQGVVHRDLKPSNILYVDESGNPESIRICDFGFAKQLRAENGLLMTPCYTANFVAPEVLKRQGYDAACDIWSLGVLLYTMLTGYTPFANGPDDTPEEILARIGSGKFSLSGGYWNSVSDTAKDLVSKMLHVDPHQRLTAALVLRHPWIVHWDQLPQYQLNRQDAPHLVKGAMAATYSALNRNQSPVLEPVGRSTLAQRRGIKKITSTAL
# Chain of Serine/threonine-protein kinase MRCK gamma (Homo sapiens) (Q6DT37 whole entry): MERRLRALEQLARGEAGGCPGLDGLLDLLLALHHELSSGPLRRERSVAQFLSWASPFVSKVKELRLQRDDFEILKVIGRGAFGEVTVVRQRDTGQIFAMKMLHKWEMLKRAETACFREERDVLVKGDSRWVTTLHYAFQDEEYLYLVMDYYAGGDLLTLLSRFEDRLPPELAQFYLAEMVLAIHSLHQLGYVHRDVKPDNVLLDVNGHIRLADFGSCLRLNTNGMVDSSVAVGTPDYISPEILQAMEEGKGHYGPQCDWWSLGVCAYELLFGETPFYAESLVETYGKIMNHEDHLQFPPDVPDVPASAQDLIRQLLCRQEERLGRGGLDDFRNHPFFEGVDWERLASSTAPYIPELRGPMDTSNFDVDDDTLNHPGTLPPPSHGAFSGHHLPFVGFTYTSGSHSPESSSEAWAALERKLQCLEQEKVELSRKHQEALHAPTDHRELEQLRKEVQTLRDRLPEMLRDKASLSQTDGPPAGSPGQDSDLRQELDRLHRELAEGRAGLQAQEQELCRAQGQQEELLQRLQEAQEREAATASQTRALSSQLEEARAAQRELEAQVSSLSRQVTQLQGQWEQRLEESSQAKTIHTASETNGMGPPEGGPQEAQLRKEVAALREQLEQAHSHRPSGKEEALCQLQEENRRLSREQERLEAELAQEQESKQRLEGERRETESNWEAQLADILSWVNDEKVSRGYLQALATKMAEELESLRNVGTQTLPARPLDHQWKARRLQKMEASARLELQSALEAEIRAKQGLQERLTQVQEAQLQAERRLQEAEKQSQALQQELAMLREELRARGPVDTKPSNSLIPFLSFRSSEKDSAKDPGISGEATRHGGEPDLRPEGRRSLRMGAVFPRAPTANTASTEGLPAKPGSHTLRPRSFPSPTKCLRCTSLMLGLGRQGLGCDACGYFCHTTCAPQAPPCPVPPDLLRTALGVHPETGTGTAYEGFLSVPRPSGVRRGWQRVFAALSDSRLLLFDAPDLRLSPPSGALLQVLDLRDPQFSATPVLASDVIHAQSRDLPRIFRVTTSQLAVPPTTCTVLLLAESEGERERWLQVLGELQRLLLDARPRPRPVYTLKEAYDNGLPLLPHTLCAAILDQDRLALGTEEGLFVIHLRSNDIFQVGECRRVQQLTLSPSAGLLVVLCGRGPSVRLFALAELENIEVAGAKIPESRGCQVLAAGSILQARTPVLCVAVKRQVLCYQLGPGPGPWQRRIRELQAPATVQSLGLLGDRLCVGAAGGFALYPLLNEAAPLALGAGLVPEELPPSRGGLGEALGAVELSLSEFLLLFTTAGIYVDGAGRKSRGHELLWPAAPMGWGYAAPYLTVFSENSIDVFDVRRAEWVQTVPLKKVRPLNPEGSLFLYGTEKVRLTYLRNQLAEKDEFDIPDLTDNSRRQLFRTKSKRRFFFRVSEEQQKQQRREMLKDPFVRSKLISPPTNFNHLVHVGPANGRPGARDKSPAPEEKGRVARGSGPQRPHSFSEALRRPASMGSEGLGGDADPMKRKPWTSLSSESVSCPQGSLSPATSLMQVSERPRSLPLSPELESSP
# Chain of Cyclin-dependent kinase-like 3 (Homo sapiens) (Q8IVW4 whole entry, looked up): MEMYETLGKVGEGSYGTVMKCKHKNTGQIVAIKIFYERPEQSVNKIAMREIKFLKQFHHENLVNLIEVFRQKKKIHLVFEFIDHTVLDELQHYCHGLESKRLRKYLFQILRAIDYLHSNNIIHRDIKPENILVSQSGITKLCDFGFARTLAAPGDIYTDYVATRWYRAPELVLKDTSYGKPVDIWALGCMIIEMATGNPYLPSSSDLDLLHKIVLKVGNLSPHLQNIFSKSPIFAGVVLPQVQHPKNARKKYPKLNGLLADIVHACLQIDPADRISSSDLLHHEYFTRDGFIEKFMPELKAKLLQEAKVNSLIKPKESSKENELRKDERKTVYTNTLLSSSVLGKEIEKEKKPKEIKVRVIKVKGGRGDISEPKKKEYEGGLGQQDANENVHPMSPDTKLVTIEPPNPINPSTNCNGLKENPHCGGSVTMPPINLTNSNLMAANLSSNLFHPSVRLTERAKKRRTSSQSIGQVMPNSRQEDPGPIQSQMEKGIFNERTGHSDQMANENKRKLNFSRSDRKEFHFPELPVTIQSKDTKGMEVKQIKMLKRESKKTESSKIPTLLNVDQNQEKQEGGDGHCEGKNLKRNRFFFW
# Chain of Sigma non-opioid intracellular receptor 1 (Homo sapiens) (Q99720 whole entry, canonical isoform): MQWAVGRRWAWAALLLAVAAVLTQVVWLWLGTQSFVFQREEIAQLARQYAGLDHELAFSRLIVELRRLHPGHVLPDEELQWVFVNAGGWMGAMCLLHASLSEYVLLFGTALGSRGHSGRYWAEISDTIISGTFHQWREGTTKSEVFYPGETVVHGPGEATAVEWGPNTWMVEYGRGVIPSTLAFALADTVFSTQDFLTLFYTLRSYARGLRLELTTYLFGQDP
structure (smiles),measurement,setting,value
Cc1c(NC(=O)c2cc(C(N)=O)nc3cc(F)ccc23)c(C(F)(F)F)nn1Cc1ccc(C(C)(C)C)cc1 [BAY-588],inhibition,[1],6.28%
same,residual activity,[2],100%
same,residual activity,[3],100%
same,residual activity,[4],92%
same,residual activity,[5],43%
same,residual activity,[6],98%
same,inhibition,[7],7.98%
same,residual activity,[8],100%
same,residual activity,[9],94%
same,residual activity,[10],96%
same,residual activity,[11],84%
same,residual activity,[12],98%
same,residual activity,[13],100%
same,residual activity,[14],85%
same,residual activity,[15],94%
same,residual activity,[16],100%
same,residual activity,[17],100%
same,residual activity,[18],91%
same,residual activity,[19],100%
same,residual activity,[20],100%
same,residual activity,[21],99%
same,residual activity,[22],100%
same,residual activity,[23],100%
same,residual activity,[24],76%
same,residual activity,[25],100%
same,residual activity,[26],100%
same,residual activity,[27],100%
same,residual activity,[28],87%
same,inhibition,[29],1.86%
same,residual activity,[30],97%
same,residual activity,[31],100%
same,residual activity,[32],87%
same,residual activity,[33],100%
same,inhibition,[34],8.69%
same,inhibition,[35],32.4%
same,inhibition,[36],7.34%
same,residual activity,[37],100%
same,residual activity,[38],100%
same,residual activity,[39],100%
same,residual activity,[40],100%
same,residual activity,[41],97%
same,residual activity,[42],100%
same,residual activity,[43],100%
same,residual activity,[44],100%
Cc1c(NC(=O)c2cc(C(N)=O)nc3cc(F)ccc23)c(C(F)(F)F)nn1Cc1ccc(C#N)cc1 [BAY-876],inhibition,[1],-2.5%
same,residual activity,[2],100%
same,residual activity,[3],94%
same,residual activity,[4],69%
same,residual activity,[5],84%
same,residual activity,[6],100%
same,inhibition,[7],4%
same,residual activity,[8],100%
same,residual activity,[9],84%
same,residual activity,[10],96%
same,residual activity,[11],100%
same,residual activity,[12],90%
same,residual activity,[13],70%
same,residual activity,[14],72%
same,residual activity,[15],92%
same,residual activity,[16],85%
same,residual activity,[17],100%
same,residual activity,[18],91%
same,residual activity,[19],94%
same,residual activity,[20],70%
same,residual activity,[21],73%
same,residual activity,[22],95%
same,residual activity,[23],99%
same,residual activity,[24],100%
same,residual activity,[25],82%
same,residual activity,[26],83%
same,residual activity,[27],98%
same,residual activity,[28],74%
same,inhibition,[29],-6.5%
same,residual activity,[30],100%
same,residual activity,[31],81%
same,residual activity,[32],80%
same,residual activity,[33],100%
same,inhibition,[34],-4.15%
same,inhibition,[35],30.4%
same,inhibition,[36],5.66%
same,residual activity,[37],83%
same,residual activity,[38],100%
same,residual activity,[39],100%
same,residual activity,[40],100%
same,residual activity,[41],89%
same,residual activity,[42],91%
same,residual activity,[43],87%
same,residual activity,[44],100%
